Data from ChEMBL document CHEMBL3297734, “Cationic lipid-conjugated dexamethasone as a selective antitumor agent” (Eur J Med Chem, 2014).
The source made the active and inactive calls. The calls are words filed in the database; no cut-off is given here.

Legend:
[1] = Anticancer against mouse B16F10 cells after 72 hrs by MTT assay; format: functional, cell-based; settings: B16-F10, 72 h
MCF7 [2] = test: Anticancer against human MCF7 cells after 72 hrs by MTT assay; format: functional, cell-based; settings: MCF7, 72 h
A549 = test: Anticancer against human A549 cells after 72 hrs by MTT assay; format: functional, cell-based; settings: A549, 72 h
CHO [3] = test: Cytotoxicity against CHO cells after 72 hrs by MTT assay; format: cell-based; settings: Cricetulus griseus
HEK-293T [4] = test: Cytotoxicity against HEK293T cells after 72 hrs by MTT assay; format: cell-based; settings: Homo sapiens
[5] = Cytotoxicity against mouse fibroblasts after 72 hrs by MTT assay; format: cell-based; settings: Fibroblast
B16-F10 [6] = test: Induction of apoptosis in mouse B16F10 cells assessed as necrotic cells at 10 uM after 48 hrs using FITC-annexin V-FITC/propidium iodide by flow cytometry (reference value: 1.7%); format: functional
B16-F10 [7] = test: Induction of apoptosis in mouse B16F10 cells assessed as late apoptotic cells at 10 uM after 48 hrs using FITC-annexin V-FITC/propidium iodide by flow cytometry (reference value: 2.5%); format: functional
B16-F10 [8] = test: Induction of apoptosis in mouse B16F10 cells assessed as early apoptotic cells at 10 uM after 48 hrs using FITC-annexin V-FITC/propidium iodide by flow cytometry (reference value: 0.7%); format: functional
B16-F10 [9] = test: Induction of apoptosis in mouse B16F10 cells assessed as viable cells at 10 uM after 48 hrs using FITC-annexin V-FITC/propidium iodide by flow cytometry (reference value: 95.1%); format: functional; settings: B16-F10, 48 h, read-out: Activity
MCF7 [10] = test: Induction of apoptosis in human MCF7 cells assessed as necrotic cells at 10 uM after 48 hrs using FITC-annexin V-FITC/propidium iodide by flow cytometry (reference value: 7.1%); format: functional
MCF7 [11] = test: Induction of apoptosis in human MCF7 cells assessed as late apoptotic cells at 10 uM after 48 hrs using FITC-annexin V-FITC/propidium iodide by flow cytometry (reference value: 3.5%); format: functional
MCF7 [12] = test: Induction of apoptosis in human MCF7 cells assessed as early apoptotic cells at 10 uM after 48 hrs using FITC-annexin V-FITC/propidium iodide by flow cytometry (reference value: 3%); format: functional
MCF7 [13] = test: Induction of apoptosis in human MCF7 cells assessed as viable cells at 10 uM after 48 hrs using FITC-annexin V-FITC/propidium iodide by flow cytometry (reference value: 86.4%); format: functional; settings: MCF7, 48 h, read-out: Activity
CHO [14] = test: Induction of apoptosis in CHO cells assessed as necrotic cells at 10 uM after 48 hrs using FITC-annexin V-FITC/propidium iodide by flow cytometry (Rvb =6.6%); format: cell-based, Cricetulus griseus; settings: chinese hamster
CHO [15] = test: Induction of apoptosis in CHO cells assessed as late apoptotic cells at 10 uM after 48 hrs using FITC-annexin V-FITC/propidium iodide by flow cytometry (reference value: 0%); format: cell-based, Cricetulus griseus; settings: chinese hamster
CHO [16] = test: Induction of apoptosis in CHO cells assessed as early apoptotic cells at 10 uM after 48 hrs using FITC-annexin V-FITC/propidium iodide by flow cytometry (reference value: 0.1%); format: cell-based, Cricetulus griseus; settings: chinese hamster
[17] = Induction of apoptosis in CHO cells assessed as viable cells at 10 uM after 48 hrs using FITC-annexin V-FITC/propidium iodide by flow cytometry (reference value: 93.3%); format: cell-based, Cricetulus griseus; settings: chinese hamster, read-out: Activity
HEK-293T [18] = test: Induction of apoptosis in HEK293T cells assessed as necrotic cells at 10 uM after 48 hrs using FITC-annexin V-FITC/propidium iodide by flow cytometry (reference value: 0.7%); format: cell-based; settings: human
HEK-293T [19] = test: Induction of apoptosis in HEK293T cells assessed as late apoptotic cells at 10 uM after 48 hrs using FITC-annexin V-FITC/propidium iodide by flow cytometry (reference value: 0.4%); format: cell-based; settings: human
HEK-293T [20] = test: Induction of apoptosis in HEK293T cells assessed as early apoptotic cells at 10 uM after 48 hrs using FITC-annexin V-FITC/propidium iodide by flow cytometry (reference value: 0.3%); format: cell-based; settings: human
[21] = Induction of apoptosis in HEK293T cells assessed as viable cells at 10 uM after 48 hrs using FITC-annexin V-FITC/propidium iodide by flow cytometry (reference value: 98.6%); format: cell-based, HEK-293T; settings: human, read-out: Activity
B16-F10 [22] = test: Cytotoxicity against mouse B16F10 cells transfected with GR-siRNA assessed as cell viability after 48 hrs by flow cytometry; format: functional, cell-based
MCF7 [23] = test: Cytotoxicity against human MCF7 cells transfected with GR-siRNA assessed as cell viability after 48 hrs by flow cytometry; format: functional, cell-based
B16-F10 [24] = test: Cytotoxicity against mouse B16F10 cells assessed as cell viability after 48 hrs by flow cytometry in presence of RU-486 GR antagonist; format: functional, cell-based
B16-F10 [25] = test: Antitumor activity against mouse B16F10 cells xenografted in C57BL/6 mouse assessed as inhibition tumor growth at 20 mg/kg, ip measured after 24 days of tumor inoculation; format: functional, organism-based; design: dose 20 mg/kg
B16-F10 [26] = test: Antitumor activity against mouse B16F10 cells xenografted in C57BL/6 mouse assessed as apoptotic regions at 20 mg/kg, ip measured after 24 days of tumor inoculation by TUNEL assay; format: functional, organism-based; design: dose 20 mg/kg
B16-F10 [27] = test: Antitumor activity against mouse B16F10 cells xenografted in C57BL/6 mouse assessed as apoptotic regions at 20 mg/kg, ip measured after 24 days of tumor inoculation by VE-cadherin; format: functional, organism-based; design: dose 20 mg/kg
B16-F10 [28] = test: Antitumor activity against mouse B16F10 cells xenografted in C57BL/6 mouse assessed as up-regulation of P53 in tumor at 20 mg/kg, ip measured after 24 days of tumor inoculation by Western blot analysis; format: functional, organism-based; design: dose 20 mg/kg
B16-F10 [29] = test: Antitumor activity against mouse B16F10 cells xenografted in C57BL/6 mouse assessed as down-regulation of p-Mdm2 in tumor at 20 mg/kg, ip measured after 24 days of tumor inoculation by Western blot analysis; format: functional, organism-based; design: dose 20 mg/kg
B16-F10 [30] = test: Antitumor activity against mouse B16F10 cells xenografted in C57BL/6 mouse assessed as reduction in angiogenesis in tumor measured as VEGRF2 expression at 20 mg/kg, ip measured after 24 days of tumor inoculation by microscopy relative to untreated control; format: functional, organism-based; design: dose 20 mg/kg
B16-F10 [31] = test: Induction of apoptosis in mouse B16F10 cells assessed as increase in ratio of BAX/Bcl2 expression at 10 uM after 48 hrs by Western blot analysis relative to untreated control; format: functional, cell-based
B16-F10 [32] = test: Induction of apoptosis in mouse B16F10 cells assessed as caspase 9 activation at 10 uM after 48 hrs by Western blot analysis; format: functional, cell-based
B16-F10 [33] = test: Induction of apoptosis in mouse B16F10 cells assessed as caspase 3 activation at 10 uM after 48 hrs by Western blot analysis; format: functional, cell-based
B16-F10 [34] = test: Induction of apoptosis in mouse B16F10 cells assessed as up-regulation of caspase 7 at 10 uM after 48 hrs by Western blot analysis; format: functional, cell-based
B16-F10 [35] = test: Induction of apoptosis in mouse B16F10 cells assessed as up-regulation of Smac/Diablo at 10 uM after 48 hrs by Western blot analysis; format: functional, cell-based
B16-F10 [36] = test: Induction of apoptosis in mouse B16F10 cells assessed as down-regulation of XIAP at 10 uM after 48 hrs by Western blot analysis; format: functional, cell-based
B16-F10 [37] = test: Induction of apoptosis in mouse B16F10 cells assessed as down-regulation of JAK3/STAT3 at 10 uM after 48 hrs by Western blot analysis; format: functional, cell-based
B16-F10 [38] = test: Induction of apoptosis in mouse B16F10 cells assessed as Akt destruction at 10 uM after 48 hrs by Western blot analysis; format: functional, cell-based
B16-F10 [39] = test: Induction of apoptosis in mouse B16F10 cells assessed as p53 up-regulation at 10 uM after 48 hrs by flow cytometry; format: functional, cell-based

| IC50 (MCF7 [2]) [µM] | IC50 (A549) [µM] | SMILES | IC50 [1] [µM] | IC50 (CHO [3]) [µM] | IC50 (HEK-293T [4]) [µM] | IC50 [5] [µM] | Activity (B16-F10 [6]) [%] | Activity (B16-F10 [7]) [%] | Activity (B16-F10 [8]) [%] | viability at 10 µM (B16-F10 [9]) [%] | Activity (MCF7 [10]) [%] | Activity (MCF7 [11]) [%] | Activity (MCF7 [12]) [%] | viability at 10 µM (MCF7 [13]) [%] | Activity (CHO [14]) [%] | Activity (CHO [15]) [%] | Activity (CHO [16]) [%] | viability at 48 h, 10 µM [17] [%] | Activity (HEK-293T [18]) [%] | Activity (HEK-293T [19]) [%] | further results |
| --- | --- | --- | --- | --- | --- | --- | --- | --- | --- | --- | --- | --- | --- | --- | --- | --- | --- | --- | --- | --- | --- |
| > 15 | > 15 | CC[N+](C)(CC)CCNC(=O)[C@@]1(O)[C@H](C)C[C@H]2[C@@H]3CCC4=CC(=O)C=C[C@]4(C)[C@@]3(F)[C@@H](O)C[C@@]21C | > 20 | > 15 | > 20 | > 20 | – | – | – | – | – | – | – | – | – | – | – | – | – | – | – |
| 6.5 | 7.2 | CCCCCCCC[N+](C)(CCCCCCCC)CCNC(=O)[C@@]1(O)[C@H](C)C[C@H]2[C@@H]3CCC4=CC(=O)C=C[C@]4(C)[C@@]3(F)[C@@H](O)C[C@@]21C.[Cl-] | 6 | > 15 | > 15 | > 15 | 2.5 | 12.5 | 27 | 58 | 13.1 | 7.8 | 18.6 | 61.5 | 5.9 | 0 | 0 | 94.1 | 0.5 | 0.1 | Activity (HEK-293T [20]): 0.1%; viability at 48 h, 10 µM [21]: 99.3%; Activity (B16-F10 [22]): inactive; Activity (MCF7 [23]): inactive; Activity (B16-F10 [24]): inactive; inhibition (B16-F10 [25]): Active; Activity (B16-F10 [26]): Active; Activity (B16-F10 [27]): inactive; Activity (B16-F10 [28]): Active; Activity (B16-F10 [29]): Active; inhibition (B16-F10 [30]): Active; Activity (B16-F10 [31]): Active; Activity (B16-F10 [32]): Active; Activity (B16-F10 [33]): Active; Activity (B16-F10 [34]): Active; Activity (B16-F10 [35]): Active; Activity (B16-F10 [36]): Active; Activity (B16-F10 [37]): Active; Activity (B16-F10 [38]): Active; Activity (B16-F10 [39]): Active |
| 13.5 | 14 | CCCCCCCCCCCC[N+](C)(CCCCCCCCCCCC)CCNC(=O)[C@@]1(O)[C@H](C)C[C@H]2[C@@H]3CCC4=CC(=O)C=C[C@]4(C)[C@@]3(F)[C@@H](O)C[C@@]21C | > 15 | > 20 | > 15 | > 15 | – | – | – | – | – | – | – | – | – | – | – | – | – | – | – |
| > 15 | > 15 | CCCC[N+](C)(CCCC)CCNC(=O)[C@@]1(O)[C@H](C)C[C@H]2[C@@H]3CCC4=CC(=O)C=C[C@]4(C)[C@@]3(F)[C@@H](O)C[C@@]21C | > 20 | > 20 | > 15 | > 20 | – | – | – | – | – | – | – | – | – | – | – | – | – | – | – |
| > 15 | 14.8 | CCCCCCCCCCCCCCCC[N+](C)(CCCCCCCCCCCCCCCC)CCNC(=O)[C@@]1(O)[C@H](C)C[C@H]2[C@@H]3CCC4=CC(=O)C=C[C@]4(C)[C@@]3(F)[C@@H](O)C[C@@]21C | > 15 | > 15 | > 20 | > 15 | – | – | – | – | – | – | – | – | – | – | – | – | – | – | – |
| > 15 | > 15 | C[C@@H]1C[C@H]2[C@@H]3CCC4=CC(=O)C=C[C@]4(C)[C@@]3(F)[C@@H](O)C[C@]2(C)[C@@]1(O)C(=O)CO [DEXAMETHASONE] | > 20 | > 20 | > 20 | > 15 | 1.3 | 3.7 | 0.8 | 94.1 | 9.5 | 5.9 | 2.4 | 82.8 | 4.2 | 0 | 0 | 95.8 | 0.4 | 0.1 | Activity (HEK-293T [20]): 0.1%; viability at 48 h, 10 µM [21]: 94.4%; inhibition (B16-F10 [25]): Active; Activity (B16-F10 [26]): Active; Activity (B16-F10 [27]): Active; Activity (B16-F10 [31]): Active |
